Measured values reported in patent EP0623672A1, “New alkaline serine protease of Paecilomyces lilacinus” (RESEARCH INSTITUTE FOR PLANT PROTECTION, priority 1993, dated 1994).
Read-outs that look alike come from different tables or passages of the source.

Key:
[1] = target: serine protease of Paecilomyces lilacinus (Purpureocillium lilacinum, UniProt Q01471); assay type: biochemical
Procedure: (§1) Protease activity was determined by a modified procedure of Rinderknecht et al. (1968). Ten mg of Hide Powder Azure (Sigma) was incubated in 50 mM Sodium acetate buffer pH 6.0 with the sample in a final volume of 3 ml in small glass containers. Incubation was at 37 °C in a shaking waterbath (110 strokes(min) till the solution turned blue (between 5 and 30 minutes). Following incubation the samples were put on ice and centrifuged in 1.5 ml Eppendorf cups for 5 minutes at 14.000 g. The absorbance of the supernatant was measured at 595 nm on a Uvikon 940 spectrophotometer. Protease activity of the sample was measured in duplo, averaged and expressed as A₅₉₅ ml⁻¹hr⁻¹ after correction for the blank (Milli Q water).
Several protease inhibitors, SH reducing agents and metal ions were tested on the proteolytic activity of the protease: PMSF, E64, 1.10-phenantroline, pepstatine (Sigma); EDTA, cystein MgCl₂ and CaCl₂ (Merck); DTT (BioRad). The purified enzyme was incubated for 40 minutes at 4 °C with inhibitor. After incubation the protease-activity was determined as previously described. Final inhibitor concentration was 1 mM. Protease activity in the absence of inhibitor was expressed as 100 %.

[2] = tested on: proteolytic activity in the culture filtrate; experiment: Inhibition of proteolytic activity in the culture filtrate by protease inhibitors; assay type: biochemical, Paecilomyces lilacinus
Procedure: as §1
To identify the nature of the protease the proteolytic activity in the culture filtrate was inhibited with several protease inhibitors. […] Purification of the serine protease(s) was first performed with Benzamidine-Sepharose, an affinity resin for serine proteases of class I (Pharmacia).

[3] = tested on: Paecilomyces lilacinus; experiment: Catabolite repression of protease induction in liquid culture; assay type: cell-based; details: glucose 0.3 % added each day to MNNC (chitin as substrate); mycelium as inoculum; Figure 2
Procedure: In one experiment mycelium of Paecilomyces lilacinus was used as inoculum. Mycelium was obtained by centrifuging a 6 day old culture of conidia of P. lilacinus in MMNG for 45 minutes at 9000 g. Cultures were grown in a shaking waterbath for several days at 30 °C and 125 strokes per minute. Culture filtrates were obtained by centrifuging cultures for 45 min at 9000 g. Supernatants were concentrated using an Amicon (YM-10 filter) and clarified through a 0.22 µm-filter (Schleicher & Schuell). Pellets were freeze dried and the weigth of the mycelium was measured.
as §1, with “Ten mg of Hide Powder Azure (Sigma) was incubated in 50 mM Sodium acetate buffer pH 6.0 with the sample in a final volume of 3 ml in small glass containers.” left out
To see whether the fungus used glucose as carbon sourece, glucose concentrations were determined in the culture filtrate, of the fungus in MNNG (Figure 1). […]

[4] = 1 mM final, 40 minutes at 4 °C, Figure 7

Chain of serine protease of Paecilomyces lilacinus (Q01471 entry or part of it): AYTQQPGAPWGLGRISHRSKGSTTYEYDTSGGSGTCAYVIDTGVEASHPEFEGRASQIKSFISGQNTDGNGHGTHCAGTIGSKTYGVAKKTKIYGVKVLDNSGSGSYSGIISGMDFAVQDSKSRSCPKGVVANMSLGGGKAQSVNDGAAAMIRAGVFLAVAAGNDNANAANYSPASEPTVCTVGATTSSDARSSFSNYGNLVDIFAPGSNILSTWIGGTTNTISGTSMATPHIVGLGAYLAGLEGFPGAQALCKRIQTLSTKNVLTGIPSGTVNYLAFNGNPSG

| Compound | effect on the proteolytic activity of the purified protease [1, 4] | also measured |
| --- | --- | --- |
| OC(CS)C(O)CS (centres unmarked) [DTT] | did not influence its activity |  |
| O=C(O)CN(CCN(CC(=O)O)CC(=O)O)CC(=O)O [EDTA] |  | effect on the proteolytic activity of the purified protease [1]: enhanced its activity |
| O=S(=O)(F)Cc1ccccc1 [PMSF] |  | inhibition of the activity of the purified protease ([1]; inhibitor 1 mM final, 40 minutes at 4 °C, activity without inhibitor = 100 %, Figure 7): 100%; inhibition of the proteolytic activity in the culture filtrate [2]: most of the protease activity present in the medium was inhibited |
| N[C@@H](CS)C(=O)O [cystein] | did not influence its activity |  |
| OC[C@H]1OC(O)[C@H](O)[C@@H](O)[C@@H]1O (some centres unmarked) [glucose] |  | induction of protease activity [3]: repressed |
| CaCl₂ [Ca⁺⁺] | lowered the protease activity slightly |  |
| MgCl₂ [Mg⁺⁺] | lowered the protease activity slightly |  |
